Values quoted from earlier work as cited in US20090196914A1, “LIPOSOMAL L-CARNITINE” (priority 2002, published 2009).

Conditions: oral drug

CCC(=O)O[C@H](CC(=O)[O-])C[N+](C)(C)C [Propionyl-L-carnitine]
bioavailability: 15%
